Reference: PubChem BioAssay AID1259407 (Chemical Carcinogenesis Research Information System (CCRIS), 2018)
Calls of active or inactive are those of the source. No rule for the calls is given here.

Tested on: CCRIS mutagenicity, Ames/micronucleus/aberration tests
Experiment: CCRIS mutagenicity studies
[1] = Test System: AMES SALMONELLA TYPHIMURIUM, Strain/Indicator: TA98, Metabolic Activation: NONE, Method: PREINCUBATION

Measured: mutagenic call

[B-]
inactive: [1] inactive; negative | Test System: AMES SALMONELLA TYPHIMURIUM, Strain/Indicator: TA98, Metabolic Activation: RAT LIVER S-9, PHENOBARBITAL AND BETA-NAPHTHOFLAVONE, Method: PREINCUBATION inactive; negative | Test System: AMES SALMONELLA TYPHIMURIUM, Strain/Indicator: TA100, Metabolic Activation: NONE, Method: PREINCUBATION inactive; negative | Test System: AMES SALMONELLA TYPHIMURIUM, Strain/Indicator: TA100, Metabolic Activation: RAT LIVER S-9, PHENOBARBITAL AND BETA-NAPHTHOFLAVONE, Method: PREINCUBATION inactive; negative | Test System: AMES SALMONELLA TYPHIMURIUM, Strain/Indicator: TA1535, Metabolic Activation: NONE, Method: PREINCUBATION inactive; negative | Test System: AMES SALMONELLA TYPHIMURIUM, Strain/Indicator: TA1535, Metabolic Activation: RAT LIVER S-9, PHENOBARBITAL AND BETA-NAPHTHOFLAVONE, Method: PREINCUBATION inactive; negative | Test System: AMES SALMONELLA TYPHIMURIUM, Strain/Indicator: TA1537, Metabolic Activation: NONE, Method: PREINCUBATION inactive; negative | Test System: AMES SALMONELLA TYPHIMURIUM, Strain/Indicator: TA1537, Metabolic Activation: RAT LIVER S-9, PHENOBARBITAL AND BETA-NAPHTHOFLAVONE, Method: PREINCUBATION inactive; negative | Test System: AMES SALMONELLA TYPHIMURIUM, Strain/Indicator: TA1538, Metabolic Activation: NONE, Method: PREINCUBATION inactive; negative | Test System: AMES SALMONELLA TYPHIMURIUM, Strain/Indicator: TA1538, Metabolic Activation: RAT LIVER S-9, PHENOBARBITAL AND BETA-NAPHTHOFLAVONE, Method: PREINCUBATION inactive; negative | Test System: E.COLI, Strain/Indicator: WP2UVRA, Metabolic Activation: NONE, Method: PREINCUBATION inactive; negative | Test System: E.COLI, Strain/Indicator: WP2UVRA, Metabolic Activation: RAT LIVER S-9, PHENOBARBITAL AND BETA-NAPHTHOFLAVONE, Method: PREINCUBATION inactive; negative

CN=C=O
inactive: Test System: AMES SALMONELLA TYPHIMURIUM, Strain/Indicator: TA97A, Metabolic Activation: NONE, Method: PREINCUBATION inactive; negative | Test System: AMES SALMONELLA TYPHIMURIUM, Strain/Indicator: TA97A, Metabolic Activation: RAT, LIVER, S-9, AROCLOR 1254, Method: PREINCUBATION inactive; negative | Test System: AMES SALMONELLA TYPHIMURIUM, Strain/Indicator: TA97A, Metabolic Activation: RAT, LIVER, S-9, BETA-NAPHTHOFLAVONE, Method: PREINCUBATION inactive; negative | Test System: AMES SALMONELLA TYPHIMURIUM, Strain/Indicator: TA97A, Metabolic Activation: RAT, LIVER, S-9, SODIUM PHENOBARBITONE, Method: PREINCUBATION inactive; negative | Test System: AMES SALMONELLA TYPHIMURIUM, Strain/Indicator: TA98, Metabolic Activation: HAMSTER, LIVER, S-9, AROCLOR 1254, Method: STANDARD PLATE inactive; negative | [1] inactive; negative | Test System: AMES SALMONELLA TYPHIMURIUM, Strain/Indicator: TA98, Metabolic Activation: NONE, Method: STANDARD PLATE inactive; negative | Test System: AMES SALMONELLA TYPHIMURIUM, Strain/Indicator: TA98, Metabolic Activation: RAT, LIVER, S-9, AROCLOR 1254, Method: PREINCUBATION inactive; negative | Test System: AMES SALMONELLA TYPHIMURIUM, Strain/Indicator: TA98, Metabolic Activation: RAT, LIVER, S-9, AROCLOR 1254, Method: STANDARD PLATE inactive; negative | Test System: AMES SALMONELLA TYPHIMURIUM, Strain/Indicator: TA98, Metabolic Activation: RAT, LIVER, S-9, BETA-NAPHTHOFLAVONE, Method: PREINCUBATION inactive; negative | Test System: AMES SALMONELLA TYPHIMURIUM, Strain/Indicator: TA98, Metabolic Activation: RAT, LIVER, S-9, SODIUM PHENOBARBITONE, Method: PREINCUBATION inactive; negative | Test System: AMES SALMONELLA TYPHIMURIUM, Strain/Indicator: TA100, Metabolic Activation: HAMSTER, LIVER, S-9, AROCLOR 1254, Method: STANDARD PLATE inactive; negative | Test System: AMES SALMONELLA TYPHIMURIUM, Strain/Indicator: TA100, Metabolic Activation: NONE, Method: STANDARD PLATE inactive; negative | Test System: AMES SALMONELLA TYPHIMURIUM, Strain/Indicator: TA100, Metabolic Activation: RAT, LIVER, S-9, AROCLOR 1254, Method: PREINCUBATION inactive; negative | Test System: AMES SALMONELLA TYPHIMURIUM, Strain/Indicator: TA100, Metabolic Activation: RAT, LIVER, S-9, AROCLOR 1254, Method: STANDARD PLATE inactive; negative | Test System: AMES SALMONELLA TYPHIMURIUM, Strain/Indicator: TA100, Metabolic Activation: RAT, LIVER, S-9, BETA-NAPHTHOFLAVONE, Method: PREINCUBATION inactive; negative | Test System: AMES SALMONELLA TYPHIMURIUM, Strain/Indicator: TA100, Metabolic Activation: RAT, LIVER, S-9, SODIUM PHENOBARBITONE, Method: PREINCUBATION inactive; negative | Test System: AMES SALMONELLA TYPHIMURIUM, Strain/Indicator: TA102, Metabolic Activation: NONE, Method: PREINCUBATION inactive; negative | Test System: AMES SALMONELLA TYPHIMURIUM, Strain/Indicator: TA102, Metabolic Activation: RAT, LIVER, S-9, AROCLOR 1254, Method: PREINCUBATION inactive; negative | Test System: AMES SALMONELLA TYPHIMURIUM, Strain/Indicator: TA102, Metabolic Activation: RAT, LIVER, S-9, BETA-NAPHTHOFLAVONE, Method: PREINCUBATION inactive; negative | Test System: AMES SALMONELLA TYPHIMURIUM, Strain/Indicator: TA102, Metabolic Activation: RAT, LIVER, S-9, SODIUM PHENOBARBITONE, Method: PREINCUBATION inactive; negative | Test System: AMES SALMONELLA TYPHIMURIUM, Strain/Indicator: TA104, Metabolic Activation: RAT, LIVER, S-9, AROCLOR 1254, Method: PREINCUBATION inactive; negative | Test System: AMES SALMONELLA TYPHIMURIUM, Strain/Indicator: TA104, Metabolic Activation: RAT, LIVER, S-9, BETA-NAPHTHOFLAVONE, Method: PREINCUBATION inactive; negative | Test System: AMES SALMONELLA TYPHIMURIUM, Strain/Indicator: TA104, Metabolic Activation: RAT, LIVER, S-9, SODIUM PHENOBARBITONE, Method: PREINCUBATION inactive; negative | Test System: AMES SALMONELLA TYPHIMURIUM, Strain/Indicator: TA1535, Metabolic Activation: HAMSTER, LIVER, S-9, AROCLOR 1254, Method: STANDARD PLATE inactive; negative | Test System: AMES SALMONELLA TYPHIMURIUM, Strain/Indicator: TA1535, Metabolic Activation: NONE, Method: STANDARD PLATE inactive; negative | Test System: AMES SALMONELLA TYPHIMURIUM, Strain/Indicator: TA1535, Metabolic Activation: RAT, LIVER, S-9, AROCLOR 1254, Method: STANDARD PLATE inactive; negative | Test System: AMES SALMONELLA TYPHIMURIUM, Strain/Indicator: TA1537, Metabolic Activation: HAMSTER, LIVER, S-9, AROCLOR 1254, Method: STANDARD PLATE inactive; negative | Test System: AMES SALMONELLA TYPHIMURIUM, Strain/Indicator: TA1537, Metabolic Activation: NONE, Method: STANDARD PLATE inactive; negative | Test System: AMES SALMONELLA TYPHIMURIUM, Strain/Indicator: TA1537, Metabolic Activation: RAT, LIVER, S-9, AROCLOR 1254, Method: STANDARD PLATE inactive; negative | Test System: AMES SALMONELLA TYPHIMURIUM, Strain/Indicator: TA1538, Metabolic Activation: HAMSTER, LIVER, S-9, AROCLOR 1254, Method: STANDARD PLATE inactive; negative | Test System: AMES SALMONELLA TYPHIMURIUM, Strain/Indicator: TA1538, Metabolic Activation: NONE, Method: STANDARD PLATE inactive; negative | Test System: AMES SALMONELLA TYPHIMURIUM, Strain/Indicator: TA1538, Metabolic Activation: RAT, LIVER, S-9, AROCLOR 1254, Method: STANDARD PLATE inactive; negative | Test System: MOUSE LYMPHOMA, Strain/Indicator: L5178Y (TK+/TK-), Metabolic Activation: RAT, LIVER, S-9, AROCLOR 1254, Method: SUSPENSION/PLATE inactive; negative. reevaluation of results: negative
